According to PubChem BioAssay AID1549 (Sanford-Burnham Center for Chemical Genomics, 2009):
Active and inactive are the calls of the source. How the calls were made is not given here.

Molecular target: Influenza A virus M2 proton channel (A/TW/4845/1999 H1N1)
Assay: M2 proton channel binding, NMR based, influenza A virus H1N1 strain (AID 1549)
Conditions: NMR binding screen, M2 protein

Structure (SMILES)	Kd
O=C1CS/C(=N/S(=O)(=O)c2ccccc2)N1	> 4 mM (inactive)
c1ccc(-c2csc(Nc3cccnc3)n2)nc1	> 4 mM (inactive)
CCn1ccc(C(=O)Nc2nccs2)n1	> 4 mM (inactive)
O=C(O)C1Cc2ccccc2N1 (centres undefined)	> 4 mM (inactive)
COC(=O)c1c(C)c2c(c(C)c1O)OC(=O)c1c(C)c(Cl)c(O)c(Cl)c1O2	> 4 mM (inactive)
COC(=O)Cc1csc(N)n1	> 4 mM (inactive)
Cc1n[nH]c(C)c1N	> 4 mM (inactive)
OCc1ccc(Oc2ccccc2)nc1	> 4 mM (inactive)
ON=c1ccc2nc3ccccc3nc2cc1	> 4 mM (inactive)
Cn1cccc1C(=O)NS(=O)(=O)c1ccccc1Cl	> 4 mM (inactive)
CCOC(=O)c1c(C)nc2ccccn12	> 4 mM (inactive)
CCn1cnc2cc(NCc3ccncc3)ccc21	> 4 mM (inactive)
Cc1ccc2c(c1)CCCN2C(=O)c1c(C)noc1C	> 4 mM (inactive)
Cc1[nH]c2ccccc2c1Cc1n[nH]c(=S)n1C	> 4 mM (inactive)
CC(C)NC(=O)Cc1c(O)c2ccccc2[nH]c1=O	> 4 mM (inactive)
CN1CCN(c2nc3c(c(=O)[nH]2)CCCC3)CC1	> 4 mM (inactive)
Cc1nc(-c2cc(C(=O)O)no2)cs1	> 4 mM (inactive)
Cc1[nH]c2ccccc2c1CN(C)C	> 4 mM (inactive)
CCc1ccccc1OCc1nnc(N)s1	> 4 mM (inactive)
O=C(Nc1ccccc1)N1CCOCC1	> 4 mM (inactive)
O=C(/C=C1\SC(=O)NC1=O)NCc1ccccc1	> 4 mM (inactive)
CC1CCc2cc(F)ccc2N1C(=O)c1ccc(=O)[nH]n1 (centres undefined)	> 4 mM (inactive)
COc1ccc(-c2nc(C)sc2CC(=O)O)cc1	> 4 mM (inactive)
CCNC(CC(=O)Nc1ccc(F)cc1)C(=O)O (centres undefined)	> 4 mM (inactive)

Structure (SMILES)	Kd
O=c1c(O)cccc2cc(O)c(O)c(O)c12	> 4 mM (inactive)
COc1cccc(C(=O)N2CCOCC2)c1	> 4 mM (inactive)
Cc1cc(C)n(CCCC(=O)O)n1	> 4 mM (inactive)
c1ccc(SCc2nc(-c3ccncc3)no2)cc1	> 4 mM (inactive)
COc1cnn(Cc2ccccc2)c(=O)c1Cl	> 4 mM (inactive)
O=C1CSC(=Nc2ccc(C(=O)O)cc2)N1	> 4 mM (inactive)
CCc1c(C)[nH]c(=S)c(C(N)=O)c1C	> 4 mM (inactive)
CC(=O)Nc1ccc(NC(C)=O)c(C(F)(F)F)c1	> 4 mM (inactive)
CN1CCN(c2ccc(CN)cc2)CC1	> 4 mM (inactive)
CC1=CC(C)C(C(=O)O)C(C(=O)N2CCN(C)CC2)C1 (centres undefined)	> 4 mM (inactive)
Cc1nc(-c2ccccc2)ncc1CO	> 4 mM (inactive)
Cn1nc(C(=O)NC2CCCCC2)c2ccccc2c1=O	> 4 mM (inactive)
COC(=O)c1ccc2nc[nH]c2c1	> 4 mM (inactive)
O=c1[nH]c(CN2CCN(CCO)CC2)nc2ccccc12	> 4 mM (inactive)
Cc1ccc(C(=O)N2CC(=O)NC(=O)C2)cc1	> 4 mM (inactive)
COc1ccc2nc(SCC(N)=O)[nH]c2c1	> 4 mM (inactive)
Nc1nc(O)c(C2=c3cc(Cl)ccc3=NC2=O)s1	> 4 mM (inactive)
CC(C)CCCC1(C)C=Cc2c(O)c3c(c(CCC(C)C)c2O1)OC12C(CC4CC1C(C)(C)OC2(CCC(C)C(=O)O)C4O)C3=O (centres undefined)	> 4 mM (inactive)
CC(C)CCCC(C)C1CCC2C3CC(=O)[C@H]4C[C@@H](O)CC[C@]4(C)C3CC[C@]12C (some centres undefined)	> 4 mM (inactive)
COc1ccccc1C(=O)Nc1ccccn1	> 4 mM (inactive)
O=C(O)c1ccc(-c2ccccn2)s1	> 4 mM (inactive)
CCOc1ccc(-c2c(=O)n(O)c3ccccc3[n+]2[O-])cc1	> 4 mM (inactive)
Cn1cc(C(=O)N/N=C/c2ccccc2)ccc1=O	> 4 mM (inactive)
Cc1cc(C)n(C/C=C/Cn2nc(C)cc2C)n1	> 4 mM (inactive)

Structure (SMILES)	Kd
CN1CCC(N(C)C2CCN(C)CC2)CC1	> 4 mM (inactive)
Cc1scc(C(=O)Nc2ccon2)c1-c1ccccc1	> 4 mM (inactive)
COc1cc2c(cc1-c1coc3c4c(c(OC)cc3c1=O)OC(C)(C)C=C4)OCO2	> 4 mM (inactive)
N#Cc1cnn(Cc2ccc(Cl)cc2)c1N	> 4 mM (inactive)
Cn1nnc2cc(C(=O)Nc3cccnc3)ccc21	> 4 mM (inactive)
O=C(Nc1ccccn1)c1cc(-n2cnnc2)ccc1Cl	> 4 mM (inactive)
Cc1nn(-c2ccccc2C(=O)O)c(=O)c2ccccc12	> 4 mM (inactive)
O=C(O)C1CC(C2CCCCN2)CN2CCCCC12 (centres undefined)	> 4 mM (inactive)
C=C1C(=O)O[C@@H]2C3OC3(C)CC/C=C(\C)CC[C@@H]12 (some centres undefined)	> 4 mM (inactive)
O=C(NC1CSCC1O)c1ccccc1 (centres undefined)	> 4 mM (inactive)
C/C=C(/C)C(=O)O[C@@H]1Cc2c(ccc3ccc(=O)oc23)OC1(C)C	> 4 mM (inactive)
Cc1cc2c(=O)n(C)c(SCC(N)=O)nc2s1	> 4 mM (inactive)
CN(C)CC(O)C1CCOC(C)(C)C1 (centres undefined)	> 4 mM (inactive)
CC(=O)Nc1ccc(-c2nc(C)c(C(C)=O)n2O)cc1	> 4 mM (inactive)
O=c1c2c(nc3nc(Cc4ccccc4)[nH]n13)CCC2	> 4 mM (inactive)
O=C(O)c1cccnc1N1CCOCC1	> 4 mM (inactive)
Nc1cccnc1N1CCOCC1	> 4 mM (inactive)
O=c1ccn(Cc2ccccc2)c(=O)n1Cc1ccccc1	> 4 mM (inactive)
O=C(c1ccc2c(c1)OCO2)N1CCC2(CC1)OCCO2	> 4 mM (inactive)
Cc1cccc(-c2nnc(-c3ccc(N)cc3)o2)c1	> 4 mM (inactive)
Nc1cc(N)nc(SCc2cccnc2)n1	> 4 mM (inactive)
NC(=O)c1cccc(Cl)n1	> 4 mM (inactive)
COC(=O)C1=CO[C@@H](O[C@@H]2O[C@H](CO)[C@@H](O)[C@H](O)[C@H]2O)[C@@H]2[C@@H](C)[C@@H](O)C[C@H]12	> 4 mM (inactive)
COc1cccc(/C=N/N=C2/NC(=O)CS2)c1	> 4 mM (inactive)

Structure (SMILES)	Kd
Cc1ccc(/C=C2/NC(=S)NC2=O)s1	> 4 mM (inactive)
CCCN1CCC(N2CCC(O)CC2)CC1	> 4 mM (inactive)
COc1ccccc1/C=C\C(=O)O	> 4 mM (inactive)
CC(=O)Nc1ccncc1NC(C)=O	> 4 mM (inactive)
Cn1nc(C(=O)N2CCOCC2)c2ccccc2c1=O	> 4 mM (inactive)
O=c1cc(-c2ccccc2)oc2cc(O)cc(O)c12	> 4 mM (inactive)
O=C1c2ccccc2C(=O)N1/N=C/c1ccc[nH]1	> 4 mM (inactive)
c1ccc(-c2nc3ccccc3nc2-c2ccccn2)nc1	> 4 mM (inactive)
CNC(=S)Nc1ccc2c(c1)OCO2	> 4 mM (inactive)
CC(=O)N/N=C(\C)c1cccc(N)c1	> 4 mM (inactive)
CC(=O)Nc1ccc2c(C)cc(=O)[nH]c2c1	> 4 mM (inactive)
Cc1cc(C(=O)Nc2cccnc2)no1	> 4 mM (inactive)
OCc1ncoc1-c1ccccc1	> 4 mM (inactive)
Cc1cc(CN2C(=O)c3ccccc3C2=O)on1	> 4 mM (inactive)
O=[N+]([O-])c1ccc(/C=N/c2ncn[nH]2)cc1	> 4 mM (inactive)
NC(=O)CN1CC(c2ccccc2)CC1=O (centres undefined)	> 4 mM (inactive)
Cc1nn2c(nc1=O)SCC2(O)c1ccccc1 (centres undefined)	> 4 mM (inactive)
Cn1ccnc1SCc1cc(=O)[nH]c2ccccc12	> 4 mM (inactive)
O=c1/c(=C/c2ccccc2F)sc2ncnn12	> 4 mM (inactive)
OCc1cccc2nonc12	> 4 mM (inactive)
NCc1csc(-c2cccs2)n1	> 4 mM (inactive)
COC(=O)CCC(C)C1CCC2C3CCC4C[C@H](O)CC[C@]4(C)C3C[C@H](O)[C@]12C (some centres undefined)	> 4 mM (inactive)
COc1ccc2c(c1)CCCN2C(N)=O	> 4 mM (inactive)
Cn1c(SCc2ccon2)nc2ccccc2c1=O	> 4 mM (inactive)

Structure (SMILES)	Kd
CCc1cc2c(SCC(=O)O)ncnc2s1	> 4 mM (inactive)
CCC(C)C(=O)O[C@@H]1C[C@@]2(C)[C@H](c3ccoc3)OC(=O)CC23OC2(C)O[C@]14[C@]1(C)[C@@H](CC(=O)OC)C5(C)CC1(O)[C@](O)(C5OC(=O)C1(C)OC1C)[C@@H](OC(C)=O)[C@]34O2 (some centres undefined)	> 4 mM (inactive)
CC(=O)O[C@@H]1CC2C(C)(C)[C@H](O)C=C[C@]2(C)C2CC[C@]3(C)C(=CC(=O)O[C@H]3c3ccoc3)[C@@]21C (some centres undefined)	> 4 mM (inactive)
Cc1nnc(SCc2ccccc2)[nH]c1=O	> 4 mM (inactive)
Cc1cc(=O)[nH]c2ccccc12	> 4 mM (inactive)
CC1CCN(C(=S)c2ccccc2O)CC1	> 4 mM (inactive)
CC1CCCN(C/C(O)=C(\C#N)c2nc3ccccc3[nH]2)C1 (centres undefined)	> 4 mM (inactive)
Cn1cnc2c(=O)[nH]cc([N+](=O)[O-])c21	> 4 mM (inactive)
O=C(NCC1CCNCC1)c1ccncc1	> 4 mM (inactive)
COc1ccccc1-c1nc(-c2ccc(C)nc2OC)no1	> 4 mM (inactive)
O=c1nc(N2CCCCC2)nc2n1CCO2	> 4 mM (inactive)
O=C(Nc1cccnc1)c1c(F)cccc1F	> 4 mM (inactive)
Cc1cc(NC(=O)c2cccc(N3C(=O)CCC3=O)c2)no1	> 4 mM (inactive)
c1ccc(CCNc2ncnc3nc[nH]c23)cc1	> 4 mM (inactive)
O=C1CC(=O)N2N=C(c3ccccc3)SC2=N1	> 4 mM (inactive)
Oc1ccc(-n2ccnc2)cc1	> 4 mM (inactive)
Cc1c(C(=O)Nc2cnccn2)oc2ccccc12	> 4 mM (inactive)
CC(C)n1nnc2cc(C(=O)O)ccc21	> 4 mM (inactive)
Oc1ccccc1N1CCCC1	> 4 mM (inactive)
Cc1c(C(=O)N2CCOCC2)oc2c1C(=O)CC(C)(C)C2	> 4 mM (inactive)
Cc1cc(N2CCN(C)CC2)ncn1	> 4 mM (inactive)
C/C=C(\C)c1nnc(NC(=O)c2ccco2)s1	> 4 mM (inactive)
Nc1n[nH]c(=S)n1-c1ccccc1	> 4 mM (inactive)
